According to patent US20150072315A1, “Formulations and kit for biometric deposition of apatite on teeth” (Heraeus Kulzer GmbH, priority 2013, published 2015):

Key:
[1] = staining test for dentine-sealing effect (rhodamine, colorimetry)
Method: The components were produced as described in example 1.
After the application of the gels, a staining test was used to check if a dentine-sealing effect occurred. Acids that were insoluble at the requisite conditions were not tested further.
Principle of the staining test: The samples are measured by colorimetry on the coated and uncoated side after staining with 1% rhodamine solution using a Spectraflash 600 Plus two-channel spectrometer with the CIE L*a*b* system and aperture 3 mm X4SAV. The difference in colour is reported as the delta value (colour difference).
Tris buffer (pH value: 7.2 to 9.0) was used in the Ca gel. A sodium acetate buffer (pH value: 3.7 to 5.7) was used in the P gel.

[2] = solubility and appearance of pre-treatment, calcium and phosphate solutions made with the acid
Method: For component A containing phosphate ions, a solution containing 29.5 g NaH2PO4, 33 g Olaflur, and 27.0 g lactic acid was produced. […] A total of 24 ml of the solution and 6 g glycerol and 10 g of 300 Bloom pork rind gelatine were processed while heating to form a viscous solution. A small amount of liquid was placed in a template with a wall thickness of 500 μm and exposed to 2 bar of pressure. After solidification, the strips were removed from the template and cut into 1×1 cm squares.
For component B containing calcium ions, a calcium chloride solution containing 29.4 g calcium chloride dihydrate and 6.3 g lactic acid was prepared. […] The solution was topped up to 200 ml with de-ionized water. In order to produce the gel, 21.6 g of the solution and 8.24 g glycerol and 8 g calcium sulfate and 13.6 g 300 Bloom gelatine were mixed and heated. The liquid gel was then spread with a squeegee to a thickness of 1 mm or pressed in a template with a wall thickness of 1 mm. After solidification, the strips were cut into 1×1 cm squares. For the pre-treatment solution (mouthwash), a 0.1 mol Tris buffer was added to a 1 molar calcium chloride solution and the pH was adjusted to 9.0.

[3] = colour difference coated vs uncoated side after staining with 1% rhodamine solution, CIE L*a*b*
[4] = as E1, P gel combined with acetic acid-Ca gel

With `O=C1O[C@H]([C@@H](O)CO)C(O)=C1O` [Ascorbic acid] the “deposition after application of the kit” value [1] was “show deposition” and the “Functional test (delta E)” value [1, 3] was 56.64 ± 9.85.
For `O=C(O)c1ccccc1O` [Salicylic acid], the “solubility of the acid (merged cell spanning the solution columns)” value [2] was “insoluble”.
For `O=C(O)CC(O)C(=O)O` (stereo not drawn) [Malic acid], the “deposition after application of the kit” value [1] was “show deposition”, the “Functional test (delta E)” value [1, 3] was 42.41 ± 5.39 and the “solubility of the calcium salt of the acid” value [2] was “sufficiently soluble”. The “Pre-treatment solution: solubility/appearance” value ([2]; pH 8.5) was “precipitation”, the “Pre-treatment solution: solubility/appearance” value ([2]; pH 9.02) was “pH 9.02 clear” and the “Pre-treatment solution: solubility/appearance” value ([2]; pH 9.53) was “pH 9.53 clear”.
For `O=C(O)c1ccc(C(=O)O)c(C(=O)O)c1` [Trimellitic acid], the “Functional test (delta E)” value [1, 4] was 42.05 ± 11.24 and the “Ca gel solution: solubility/appearance” value [2] was “precipitation”.
For `CC(O)C(=O)O` (stereo not drawn) [Lactic acid], the “deposition after application of the kit” value [1] was “show deposition” and the “Functional test (delta E)” value [1, 3] was 49.83 ± 4.02.
In the case of `O=C(O)C(CO)c1ccccc1` (stereo not drawn) [Tropic acid], the “solubility of the acid (merged cell spanning the solution columns)” value [2] is reported as “insoluble”.
In the case of `N[C@@H](CC(=O)O)C(=O)O` [Aspartic acid], the “deposition after application of the kit” value [1] is reported as “show deposition” and the “Functional test (delta E)” value [1, 3] is reported as 45.96 ± 2.63.
For `O=C(O)CO` [Glycolic acid], the “deposition after application of the kit” value [1] was “show deposition” and the “Functional test (delta E)” value [1, 4] was 35.32 ± 4.19.
